What is called IC50 is the midpoint of a concentration-inhibition curve. A word on the melting point: it is the temperature of the solid-liquid transition.

The test system of series [1] is PC-3 (human prostatic cancer) cell line. As to the kind of experiment: MTT cell proliferation (cytotoxicity) assay, PC-3. It is filed as cell-based. As to conditions: 72 h, average of two separate determinations. On the procedure:
(§1) Taking GDC-0941 as reference compound, the target compounds […], 12a–j, 13a–g and 14a–g ere evaluated for the cytotoxicity against the three cancer cell lines A549, PC-3 and MCF-7 usg 3-(4,5-dimethylthiazolyl-2)-2,5-diphenyltetrazolium bromide (MTT) cell proliferation assays. In addition, one selected compounds 12h was fher evaluated for PI3Kα kinase inhibitory activity. The results, expressed as IC50 values or inhibitory rate, are sumrized in Table 1, Table 2 and Table 3.
(§2) The in vitro cytotoxic activities of all the compounds 11a–11j, 12a–12j, 13a–13g and 14a–14g was evaluated with A549, PC-3 and MCF-7 cell lines by the standard MTT assay, with GDC-0941 as positive control. The cancer cell lines were cultured in minimum essential medium (MEM) supplement with 10% fetal bovine serum (FBS). Approximately 4 × 10^3 cells, suspended in MEM medium, were plated onto each well of a 96-well plate and incubated in 5% CO2 at 37 °C for 24 h. The test compounds at indicated final concentrations were added to the culture medium and the cell cultures were continued for 72 h. Fresh MTT was added to each well at a terminal concentration of […] and incubated with cells at 37 °C for 4 h. The formazan crystals were dissolved in 100 µL DMSO each well, and the absorbency at 492 nm (for absorbance of MTT formazan) and 630 nm (for the reference wavelength) was measured with an ELISA reader. All of the compounds were tested three times in each of the cell lines. The results expressed as inhibition rates or IC50 (half-maximal inhibitory concentration) were the averages of two determinations and calculated by using the Bacus Laboratories Inc. Slide Scanner (Bliss) software (the Bacus Laboratories Inc. Slide Scanner (BLISS) system, Lombard, IL, USA).

In series [2] the test system is MCF-7 (human breast cancer) cell line. As to the kind of experiment: MTT cell proliferation (cytotoxicity) assay, MCF-7. In kind it is cell-based. As to conditions: average of two separate determinations. On the procedure:
as §1, §2

Series [3] concerns A549 (human lung cancer) cell line. As to the kind of experiment: MTT cell proliferation (cytotoxicity) assay, A549. In kind it is cell-based. As to conditions: average of two separate determinations. On the procedure:
as §1, §2

Where [4] appears, read: Homo sapiens, MCF7, 72 h, Table 2.
The mark [5] stands for this setting: Homo sapiens, A549, 72 h, Table 2.
The mark [6] stands for this setting: Homo sapiens, MCF7, 72 h, Table 1.
The mark [7] stands for this setting: Homo sapiens, A549, 72 h, Table 1.

In turn, `O=C(Nc1ccc(-c2nc3c(c(N4CCOCC4)n2)CSCC3)cc1)c1cc(-c2ccc(F)cc2)ncn1` [Compound 13d] came in with a melting point of 237 to 239.3 °C. In series [1] (Homo sapiens, Table 2), this compound had an IC50 of more than 100 µM. This compound displayed an IC50 in series [2] (setting [4]) of more than 100 µM. In series [3] (setting [5]), this compound had an IC50 of more than 100 µM.
The compound `O=C(Nc1ccc(-c2nc3c(c(N4CCOCC4)n2)CS(=O)(=O)CC3)cc1)c1cc(-c2ccc(Cl)cc2)ccn1` [Compound 12e, N-(4-(4-Morpholino-7,8-dihydro-6,6-dioxide-5H-thiopyrano[4,3-d]pyrimidin-2-yl)phenyl)-4-(4-chloro-phenyl) pyridinecarboxamide] showed a melting point of 266.8 to 268.8 °C.
As to `O=C(Nc1ccc(-c2nc3c(c(N4CCOCC4)n2)CSCC3)cc1)c1cc(-c2ccc(C(F)(F)F)cc2)ncn1` [Compound 13c], the melting point is 244.2 to 245.8 °C. The IC50 in series [1] (Homo sapiens, Table 2) was more than 100 µM. Also, in series [2] (setting [4]), the IC50 is more than 100 µM. In series [3] (setting [5]), the IC50 was more than 100 µM.
For `O=C(Nc1ccc(-c2nc3c(c(N4CCOCC4)n2)CS(=O)(=O)CC3)cc1)c1cc(-c2ccc(Cl)cc2)ncn1` [Compound 14f], the melting point is more than 300 °C. In series [1] (Homo sapiens, Table 2), this compound yielded an IC50 of more than 100 µM. For the same compound, the IC50 in series [2] (setting [4]) is more than 100 µM. For the same compound, the IC50 in series [3] (setting [5]) was more than 100 µM.
`O=C(Nc1ccc(-c2nc3c(c(N4CCOCC4)n2)CS(=O)(=O)CC3)cc1)c1cc(-c2cccc(F)c2)ccn1` [Compound 12b, N-(4-(4-Morpholino-7,8-dihydro-6,6-dioxide-5H-thiopyrano[4,3-d]pyrimidin-2-yl)phenyl)-4-(3-fluoro-phenyl) pyridinecarboxamide] yielded a melting point of 281.5 to 283.8 °C.
For the compound “N-(4-(4-Morpholino-7,8-dihydro-5H-thiopyrano[4,3-d]pyrimidin-2-yl)phenyl)-6-(p-tolyl)pyrimidine-4-formamide [Compound 13a]”, the IC50 was more than 100 µM in series [1] (Table 2); more than 100 µM in series [2] (72 h, Table 2); more than 100 µM in series [3] (72 h, Table 2).
`O=C(Nc1ccc(-c2nc3c(c(N4CCOCC4)n2)CS(=O)(=O)CC3)cc1)c1cc(-c2ccc(Br)cc2)ncn1` [Compound 14e]: the melting point is more than 300 °C. In addition, the half-inhibitory concentration (IC50) in series [1] (Homo sapiens, Table 2) is more than 100 µM. In addition, the IC50 in series [2] (setting [4]) worked out at 27.4 ± 1.27 µM. Also, the IC50 in series [3] (setting [5]) was more than 100 µM.
In turn, `COc1ccc(-c2ccnc(C(=O)Nc3ccc(-c4nc5c(c(N6CCOCC6)n4)CS(=O)(=O)CC5)cc3)c2)cc1` [Compound 12i, N-(4-(4-Morpholino-7,8-dihydro-6,6-dioxide-5H-thiopyrano[4,3-d]pyrimidin-2-yl)phenyl)-4-(4-methoxy-phenyl) pyridinecarboxamide] registered a melting point of 289 to 292.1 °C.
In turn, `COc1ccc(-c2cc(C(=O)Nc3ccc(-c4nc5c(c(N6CCOCC6)n4)CS(=O)(=O)CC5)cc3)ncn2)cc1` [Compound 14b] registered a melting point of 277 to 279.5 °C. Also, the IC50 in series [1] (Homo sapiens, Table 2) was more than 100 µM. The IC50 in series [2] (setting [4]) is 89.6 ± 0.91 µM. Further, the IC50 in series [3] (setting [5]) is more than 100 µM.
As for `O=C(Nc1ccc(-c2nc3c(c(N4CCOCC4)n2)CSCC3)cc1)c1cc(-c2cccc(F)c2)ccn1` [Compound 11b, N-(4-(4-Morpholino-7,8-dihydro-5H-thiopyrano[4,3-d]pyrimidin-2-yl)phenyl)-4-(3-fluorophenyl)pyridine amide], the melting point lay within 236.5 to 238.4 °C. The compound further returned an IC50 in series [1] (Homo sapiens, Table 1) of 60.3 ± 1.24 µM. This compound came in with an IC50 in series [2] (setting [6]) of 51.7 ± 1.56 µM. In series [3] (setting [7]), this compound displayed an IC50 of 48.08 ± 0.13 µM.
The compound `O=C(Nc1ccc(-c2nc3c(c(N4CCOCC4)n2)CS(=O)(=O)CC3)cc1)c1cc(-c2ccc(C(F)(F)F)cc2)ncn1` [Compound 14c] gave a melting point of 287.1 to 289.2 °C. The same compound displayed an IC50 in series [1] (Homo sapiens, Table 2) of more than 100 µM. The same compound displayed an IC50 in series [2] (setting [4]) of more than 100 µM. In addition, the IC50 in series [3] (setting [5]) was more than 100 µM.
On to `CS(=O)(=O)N1CCN(Cc2cc3nc(-c4cccc5[nH]ncc45)nc(N4CCOCC4)c3s2)CC1` [GDC-0941, reference compound], for which the IC50 in series [1] (Homo sapiens, Table 1) was 0.2 ± 0.08 µM; in series [2] (setting [6]) it was 0.07 ± 0.03 µM; in series [3] (setting [7]), 6.99 ± 0.21 µM.
The compound `O=C(Nc1ccc(-c2nc3c(c(N4CCOCC4)n2)CS(=O)(=O)CC3)cc1)c1cc(-c2ccccc2)ccn1` [Compound 12a, N-(4-(4-Morpholino-7,8-dihydro-6,6-dioxide-5H-thiopyrano[4,3-d]pyrimidin-2-yl)phenyl)-4-phenylpyridine Amide] had a melting point of 229 to 233.8 °C. This compound also showed an IC50 in series [1] (Homo sapiens, Table 1) of 74.27 ± 0.08 µM.
`O=C(Nc1ccc(-c2nc3c(c(N4CCOCC4)n2)CS(=O)(=O)CC3)cc1)c1cc(-c2ccccc2)ncn1` [Compound 14g] yielded a melting point of 294.2 to 296.6 °C. For the same compound, the IC50 in series [1] (Homo sapiens, Table 2) is more than 100 µM. Also, in series [2] (setting [4]), the IC50 is more than 100 µM. For the same compound, the IC50 in series [3] (setting [5]) was more than 100 µM.
For `O=C(Nc1ccc(-c2nc3c(c(N4CCOCC4)n2)CSCC3)cc1)c1cc(-c2ccc(Cl)cc2)ncn1` [Compound 13f], the melting point lay in the range of 281.8 to 285 °C. Further, in series [1] (Homo sapiens, Table 2), the IC50 was more than 100 µM. Also, in series [2] (setting [4]), the IC50 is more than 100 µM. The IC50 in series [3] (setting [5]) is more than 100 µM.
In the case of `O=C(Nc1ccc(-c2nc3c(c(N4CCOCC4)n2)CSCC3)cc1)c1cc(-c2ccc(Cl)cc2)ccn1` [Compound 11e, N-(4-(4-Morpholino-7,8-dihydro-5H-thiopyrano[4,3-d]pyrimidin-2-yl)phenyl)-4-(4-chlorophenyl)pyridine amide], the melting point was 235.3 to 236.2 °C. The compound further registered an IC50 in series [1] (Homo sapiens, Table 1) of 23.2 ± 0.76 µM. Moreover, the IC50 in series [2] (setting [6]) was determined as 20.9 ± 1.02 µM. In series [3] (setting [7]), this compound came in with an IC50 of 19.3 ± 0.86 µM.
For the compound `O=C(Nc1ccc(-c2nc3c(c(N4CCOCC4)n2)CSCC3)cc1)c1cc(-c2ccc(F)cc2F)ccn1` [Compound 11c, N-(4-(4-Morpholino-7,8-dihydro-5H-thiopyrano[4,3-d]pyrimidin-2-yl)phenyl)-4-(2,4-difluorophenyl) picolinamide], the melting point fell in the range of 235 to 236.7 °C.
Take `O=C(Nc1ccc(-c2nc3c(c(N4CCOCC4)n2)CS(=O)(=O)CC3)cc1)c1cc(-c2ccc(C(F)(F)F)cc2)ccn1` [Compound 12d, N-(4-(4-Morpholino-7,8-dihydro-6,6-dioxide-5H-thiopyrano[4,3-d]pyrimidin-2-yl)phenyl)-4-(4-trifluoro-methylphenyl) pyridinecarboxamide]: the melting point is more than 300 °C.
For the compound `Cc1ccc(-c2ccnc(C(=O)Nc3ccc(-c4nc5c(c(N6CCOCC6)n4)CSCC5)cc3)c2)cc1` [Compound 11g, N-(4-(4-Morpholino-7,8-dihydro-5H-thiopyrano[4,3-d]pyrimidin-2-yl)phenyl)-4-(4-methylphenyl) picolinamide], the melting point was in the range of 275 to 276.8 °C.
In the case of “N-(4-(4-Morpholino-7,8-dihydro-5H-thiopyrano[4,3-d]pyrimidin-2-yl)phenyl)-6-phenylpyridine-4-carboxamide [Compound 13g]”, the 50% inhibitory concentration (IC50) in series [1] (Table 2) is more than 100 µM; in series [2] (72 h, Table 2), more than 100 µM; in series [3] (72 h, Table 2), more than 100 µM.
In the case of `CCc1ccc(-c2ccnc(C(=O)Nc3ccc(-c4nc5c(c(N6CCOCC6)n4)CSCC5)cc3)c2)cc1` [Compound 11h, N-(4-(4-Morpholino-7,8-dihydro-5H-thiopyrano[4,3-d]pyrimidin-2-yl)phenyl)-4-(4-ethylphenyl) picolinamide], the melting point was 229.8 to 232.1 °C.
The compound `O=C(Nc1ccc(-c2nc3c(c(N4CCOCC4)n2)CSCC3)cc1)c1cc(-c2ccc(C(F)(F)F)cc2)ccn1` [Compound 11d, N-(4-(4-Morpholino-7,8-dihydro-5H-thiopyrano[4,3-d]pyrimidin-2-yl)phenyl)-4-(4-trifluoromethylphenyl) picolinamide] came in with a melting point of 229.3 to 231.7 °C. In series [2] (setting [6]), this compound came in with an IC50 of 50.3 ± 2.18 µM. In addition, the IC50 in series [3] (setting [7]) is 43.46 ± 0.12 µM.
With `O=C(Nc1ccc(-c2nc3c(c(N4CCOCC4)n2)CS(=O)(=O)CC3)cc1)c1cc(-c2ccc(F)cc2)ccn1` [Compound 12f, N-(4-(4-Morpholino-7,8-dihydro-6,6-dioxide-5H-thiopyrano[4,3-d]pyrimidin-2-yl)phenyl)-4-(4-fluoro-phenyl) pyridincarboxamide], the melting point is more than 300 °C.
As to `O=C(Nc1ccc(-c2nc3c(c(N4CCOCC4)n2)CSCC3)cc1)c1cc(-c2ccc(F)cc2)ccn1` [Compound 11f, N-(4-(4-Morpholino-7,8-dihydro-5H-thiopyrano[4,3-d]pyrimidin-2-yl)phenyl)-4-(4-fluorophenyl)pyridine amide], the melting point was 248.1 to 249.6 °C.
On to `O=C(Nc1ccc(-c2nc3c(c(N4CCOCC4)n2)CS(=O)(=O)CC3)cc1)c1cc(-c2ccc(F)cc2F)ccn1` [Compound 12c, N-(4-(4-Morpholino-7,8-dihydro-6,6-dioxide-5H-thiopyrano[4,3-d]pyrimidin-2-yl)phenyl)-4-(2,4-difluorophenyl) picolinamide], for which the melting point was in the range of 269 to 272.6 °C.
